Data from patent US8076487B2, “Pyridone derivative and herbicide” (Kumiai Chemical Industry Co., Ltd., priority 2006, dated 2011).

How the values were obtained:
Format in all cases: in vivo
[1] = system: green foxtail (Setaria viridis (L.) P. Beauv.); experiment: Test Example 2: herbicidal effect by soil application to upland field; details: soil surface spray, upland field soil, 1,000 g active ingredient per hectare, 21st day after application
Outline: (§1)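 After sowing and covering, the soil received an even aqueous spray of wettable powder at a rate of 1,000 g active ingredient/ha (1,000 L/ha). Ratings of herbicidal effect followed a standard scale 21 days post-treatment, with plants held in a greenhouse.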

[2] = system: slender amaranth (Amaranthus viridis L.); experiment: as above; details: soil surface spray, upland field soil, 1,000 g active ingredient per hectare, 21st day after application
Outline: as §1

[3] = system: barnyardgrass (Echinochloa crus-galli (L.) P. Beauv. var. crus-galli); experiment: as above; details: soil surface spray, upland field soil, 1,000 g active ingredient per hectare, 21st day after application
Outline: as §1

[4] = system: velvetleaf (Abutilon theophrasti medicus); experiment: as above; details: soil surface spray, upland field soil, 1,000 g active ingredient per hectare, 21st day after application
Outline: as §1

[5] = system: Japanese bulrush (Scirpus juncoides Roxb.); experiment: Test Example 1: herbicidal effect by soil application to paddy field; details: paddy field soil application; active ingredient 1,000 g per 1 hectare; wettable powder added dropwise to water surface the day after sowing; examined on the 21st day after application
Outline: (§2)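 Plants were sown in flooded (3 cm) paddy soil and evaluated for herbicidal effect 21 days after soil application in a greenhouse.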

[6] = system: heartshape false pickerelweed (Monochoria vaginalis (Burm.f.) C.Presl); experiment: as above; details: paddy field soil application; active ingredient 1,000 g per 1 hectare; wettable powder added dropwise to water surface the day after sowing; examined on the 21st day after application
Outline: as §2

[7] = system: early watergrass (Echinochloa oryzicola Vasing); experiment: as above; details: paddy field soil application; active ingredient 1,000 g per 1 hectare; wettable powder added dropwise to water surface the day after sowing; examined on the 21st day after application
Outline: as §2

[8] = system: green foxtail (Setaria viridis (L.) P. Beauv.); experiment: Test Example 3: herbicidal effect by application to upland field (foliage treatment); details: foliage treatment, 1,000 g active ingredient per 1 hectare, 14th day after application, greenhouse
Outline: (§3)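 Greenhouse-grown plants, two weeks old in field soil, were treated by spraying their foliage with a water dilution of wettable powder. Rate: 1,000 g active ingredient in a 1,000 L/ha equivalent volume. Assessment followed at 14 days.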

[9] = system: slender amaranth (Amaranthus viridis L.); experiment: as above; details: foliage treatment, 1,000 g active ingredient per 1 hectare, 14th day after application, greenhouse
Outline: as §3

[10] = system: barnyardgrass (Echinochloa crus-galli (L.) P. Beauv. var. crus-galli); experiment: as above; details: foliage treatment, 1,000 g active ingredient per 1 hectare, 14th day after application, greenhouse
Outline: as §3

[11] = system: velvetleaf (Abutilon theophrasti medicus); experiment: as above; details: foliage treatment, 1,000 g active ingredient per 1 hectare, 14th day after application, greenhouse
Outline: as §3

SMILES | herbicidal effect (index), Green Foxtail [1] | herbicidal effect (index), Slender Amaranth [2] | herbicidal effect (index), Barnyardgrass [3] | herbicidal effect (index), Velvetleaf [4] | herbicidal effect, Scirpus juncoides Roxb. [5] | herbicidal effect, Monochoria vaginalis (Burm. f.) C. Presl [6] | herbicidal effect, Echinochloa oryzicola Vasing [7] | herbicidal effect, Green Foxtail [8] | herbicidal effect, Slender Amaranth [9] | herbicidal effect, Barnyardgrass [10] | herbicidal effect, Velvetleaf [11]
COCCNn1c(C(F)(F)F)ccc(C(=O)C2=C(O)CCCC2=O)c1=O [I-169] | 5 (90% or more of herbicidal effect and crop phytotoxicity) | 5 (90% or more of herbicidal effect and crop phytotoxicity) | 5 (90% or more of herbicidal effect and crop phytotoxicity) | 5 (90% or more of herbicidal effect and crop phytotoxicity) | 5 (90% or more of herbicidal effect and crop phytotoxicity) | 5 (90% or more of herbicidal effect and crop phytotoxicity) | 5 (90% or more of herbicidal effect and crop phytotoxicity) | 5 (90% or more of herbicidal effect and crop phytotoxicity) | 5 (90% or more of herbicidal effect and crop phytotoxicity) | 5 (90% or more of herbicidal effect and crop phytotoxicity) | 5 (90% or more of herbicidal effect and crop phytotoxicity)
O=C1CCCC(O)=C1C(=O)c1ccc(C(F)(F)F)n(NCC2CCCO2)c1=O (stereo not shown) [I-170] | 5 (90% or more of herbicidal effect and crop phytotoxicity) | 5 (90% or more of herbicidal effect and crop phytotoxicity) | 5 (90% or more of herbicidal effect and crop phytotoxicity) | 5 (90% or more of herbicidal effect and crop phytotoxicity) | 5 (90% or more of herbicidal effect and crop phytotoxicity) | 5 (90% or more of herbicidal effect and crop phytotoxicity) | 5 (90% or more of herbicidal effect and crop phytotoxicity) | 4 (70 to less than 90% of herbicidal effect and crop phytotoxicity) | 5 (90% or more of herbicidal effect and crop phytotoxicity) | 5 (90% or more of herbicidal effect and crop phytotoxicity) | 5 (90% or more of herbicidal effect and crop phytotoxicity)
CN(C)n1c(C(F)(F)F)ccc(C(=O)C2=C(O)CCCC2=O)c1=O [I-171] | 4 (70 to less than 90% of herbicidal effect and crop phytotoxicity) | 5 (90% or more of herbicidal effect and crop phytotoxicity) | 5 (90% or more of herbicidal effect and crop phytotoxicity) | 5 (90% or more of herbicidal effect and crop phytotoxicity) | 5 (90% or more of herbicidal effect and crop phytotoxicity) | 5 (90% or more of herbicidal effect and crop phytotoxicity) | 5 (90% or more of herbicidal effect and crop phytotoxicity) | 4 (70 to less than 90% of herbicidal effect and crop phytotoxicity) | 5 (90% or more of herbicidal effect and crop phytotoxicity) | 5 (90% or more of herbicidal effect and crop phytotoxicity) | 5 (90% or more of herbicidal effect and crop phytotoxicity)
CCN(C)n1c(C(F)(F)F)ccc(C(=O)C2=C(O)CCCC2=O)c1=O [I-175] | 5 (90% or more of herbicidal effect and crop phytotoxicity) | 5 (90% or more of herbicidal effect and crop phytotoxicity) | 5 (90% or more of herbicidal effect and crop phytotoxicity) | 5 (90% or more of herbicidal effect and crop phytotoxicity) | 5 (90% or more of herbicidal effect and crop phytotoxicity) | 5 (90% or more of herbicidal effect and crop phytotoxicity) | 5 (90% or more of herbicidal effect and crop phytotoxicity) | 4 (70 to less than 90% of herbicidal effect and crop phytotoxicity) | 5 (90% or more of herbicidal effect and crop phytotoxicity) | 5 (90% or more of herbicidal effect and crop phytotoxicity) | 5 (90% or more of herbicidal effect and crop phytotoxicity)
O=C1CCCC(O)=C1C(=O)c1ccc(C(F)(F)F)n(N2CCCC2)c1=O [I-177] | 5 (90% or more of herbicidal effect and crop phytotoxicity) | 5 (90% or more of herbicidal effect and crop phytotoxicity) | 5 (90% or more of herbicidal effect and crop phytotoxicity) | 5 (90% or more of herbicidal effect and crop phytotoxicity) | 5 (90% or more of herbicidal effect and crop phytotoxicity) | 5 (90% or more of herbicidal effect and crop phytotoxicity) | 5 (90% or more of herbicidal effect and crop phytotoxicity) | 4 (70 to less than 90% of herbicidal effect and crop phytotoxicity) | 5 (90% or more of herbicidal effect and crop phytotoxicity) | 5 (90% or more of herbicidal effect and crop phytotoxicity) | 5 (90% or more of herbicidal effect and crop phytotoxicity)
O=C1CCCC(O)=C1C(=O)c1ccc(C(F)(F)F)n(N2CCOCC2)c1=O [I-178] | 5 (90% or more of herbicidal effect and crop phytotoxicity) | 5 (90% or more of herbicidal effect and crop phytotoxicity) | 5 (90% or more of herbicidal effect and crop phytotoxicity) | 5 (90% or more of herbicidal effect and crop phytotoxicity) | 5 (90% or more of herbicidal effect and crop phytotoxicity) | 5 (90% or more of herbicidal effect and crop phytotoxicity) | 5 (90% or more of herbicidal effect and crop phytotoxicity) | 5 (90% or more of herbicidal effect and crop phytotoxicity) | 5 (90% or more of herbicidal effect and crop phytotoxicity) | 5 (90% or more of herbicidal effect and crop phytotoxicity) | 5 (90% or more of herbicidal effect and crop phytotoxicity)
CN(C)C=Nn1c(C(F)(F)F)ccc(C(=O)C2=C(O)CCCC2=O)c1=O [I-186] | 5 (90% or more of herbicidal effect and crop phytotoxicity) | 5 (90% or more of herbicidal effect and crop phytotoxicity) | 5 (90% or more of herbicidal effect and crop phytotoxicity) | 5 (90% or more of herbicidal effect and crop phytotoxicity) | 5 (90% or more of herbicidal effect and crop phytotoxicity) | 5 (90% or more of herbicidal effect and crop phytotoxicity) | 5 (90% or more of herbicidal effect and crop phytotoxicity) | 5 (90% or more of herbicidal effect and crop phytotoxicity) | 5 (90% or more of herbicidal effect and crop phytotoxicity) | 5 (90% or more of herbicidal effect and crop phytotoxicity) | 5 (90% or more of herbicidal effect and crop phytotoxicity)
COC(=O)N(C)n1c(C(F)(F)F)ccc(C(=O)C2=C(O)CCCC2=O)c1=O [I-190] | 4 (70 to less than 90% of herbicidal effect and crop phytotoxicity) | 5 (90% or more of herbicidal effect and crop phytotoxicity) | 5 (90% or more of herbicidal effect and crop phytotoxicity) | 5 (90% or more of herbicidal effect and crop phytotoxicity) | 5 (90% or more of herbicidal effect and crop phytotoxicity) | 5 (90% or more of herbicidal effect and crop phytotoxicity) | 5 (90% or more of herbicidal effect and crop phytotoxicity) | 5 (90% or more of herbicidal effect and crop phytotoxicity) | 5 (90% or more of herbicidal effect and crop phytotoxicity) | 5 (90% or more of herbicidal effect and crop phytotoxicity) | 5 (90% or more of herbicidal effect and crop phytotoxicity)
